Reference: patent publication EP2377876A1, “Use of proteins and peptides of the TGF-BETA superfamily for purification and therapeutic methods” (Wyeth LLC, priority 2006, dated 2011)
No end group written: not given here.

What was measured:
BMP-12 = experiment: Binding of BMP-12 to peptide-coupled affinity resins in 96 well filter plate
Method: The coupled resins, plus an unconjugated resin for use as a control, were suspended in 16% ethanol, 150 mM NaCl, and 20 mM Tris buffer at pH 7.5 at a 25% v/v ratio (e.g., 25% ethanol, 75% Tris buffer). A Tecan liquid-handling robot was employed to aliquot 200 µL of each slurry into one of eight rows of a 96 well polystyrene filter plate (0.45 µm hydrophilic filters, Whatman catalog number 770-1806). Spinning at 1200 g for 3 min removed the liquid phase, leaving 50 µL of wet resin on the filters. The resins were then equilibrated with the loading buffers listed in Table 6 (K is a coefficient characterizing the strength of protein binding to a particular resin in a particular buffer). […] The resins were loaded by transferring 150 µL from the load plate to the filter plate and then incubating 20 min on a shaking platform to facilitate binding. The filter plate was spun down and the filtrate collected in a 96 well UV plate. The protein concentration in the filtrate, or flow-through, was calculated as (A280-A320)/1.3. The filter plate was then washed with 150 µL of 100 mM acetic acid, followed by 150 µL of 4M guanidine-HCl and 50 mM sodium acetate at pH 4.0. The protein concentration was measured in the new filtrate as described above. […] However, for peptides 750 and 751, the binding was strong in 25 mM MES at pH 6 but weak in 50 mM acetic acid with 0.1 M NaCl at pH 3.0, which can allow an efficient binding-elution process without the need for chaotrops or organic reagents. Flow-through and acetic acid elution samples from column 4 of the plate (loaded with MES pH 6) were analyzed on a gel (Figure 14).

BMP-3 = experiment: Purification of BMP-3 on immobilized finger 1 peptide column, comparison of ligands; format: binding; conditions: compared with the BMP-2 mutant peptide
Source text: ([…] […]) was used to purify BMP-3 as in Example 1. […] Less of the propeptide fragment eluted than in Example 6.

[1] = 50 mM acetic acid with 0.1 M NaCl at pH 3.0

Substance	binding of BMP 12 by coupled resin (BMP-12; loading buffers 1-5)	binding of BMP 12 by coupled resin (BMP-12; 25 mM MES at pH 6)	binding of BMP 12 by coupled resin (BMP-12; [1])	further results
Ac-ELGWDDWIIAPLDYEAYHSEGLK [Peptide 749]	high affinity	–	–	–
Ac-LYVDFSDVGWNDWIVAPPGYHAFYSHGEK [Peptide 747]	high affinity	–	–	–
Ac-RDLGWQDWIIAPEGYAAFYSDGEK [Peptide 748]	high affinity	–	–	–
Ac-SDVGWNDWIVAPPGYHAFYCHGEK [Peptide 750]	–	strong	weak	–
Ac-SDVGWNDWIVAPPGYHAFYSHGEK [Peptide 751]	–	strong	weak	–
KELGWDDWIIAPLDYEAYHCEGLC [BMP12 Fing1 WT]	–	–	–	effectiveness of immobilized ligand (BMP-3): less effective than the BMP-2 mutant
